The text below walks through data of ChEMBL document CHEMBL1131489, “Dihydropyrancarboxamides related to zanamivir: a new series of inhibitors of influenza virus sialidases. 2. Crystallographic and molecular modeling study of complexes of 4-amino-4H-pyran-6-carboxamides and sialidase from influenza virus types A and B” (J Med Chem, 1998).

As usually defined, the IC50 is the concentration that gives 50% inhibition. Low readings indicate higher potency, high ones lower potency.

This assay addresses Neuraminidase (Influenza A virus (A/Puerto Rico/8/1934(H1N1)), UniProt P03468).

Chain of Neuraminidase (Influenza A virus (A/Puerto Rico/8/1934(H1N1)), UniProt P03468) (P03468 whole entry): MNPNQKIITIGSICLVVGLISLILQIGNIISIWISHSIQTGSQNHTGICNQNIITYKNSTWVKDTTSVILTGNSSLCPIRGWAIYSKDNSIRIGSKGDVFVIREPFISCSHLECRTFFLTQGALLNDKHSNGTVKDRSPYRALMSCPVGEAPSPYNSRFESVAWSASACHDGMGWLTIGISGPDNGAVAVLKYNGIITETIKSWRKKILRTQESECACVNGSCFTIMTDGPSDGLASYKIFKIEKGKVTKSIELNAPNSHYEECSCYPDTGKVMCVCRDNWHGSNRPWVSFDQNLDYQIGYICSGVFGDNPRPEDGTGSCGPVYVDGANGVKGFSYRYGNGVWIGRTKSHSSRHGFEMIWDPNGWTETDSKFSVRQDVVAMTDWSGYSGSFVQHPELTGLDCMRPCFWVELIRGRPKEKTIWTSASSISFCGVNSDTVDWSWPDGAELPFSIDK

`CC(=O)N[C@H]1[C@H]([C@H](O)[C@H](O)CO)O[C@](O)(C(=O)O)C[C@@H]1O` had an IC50 of 1000 µM.
